According to patent publication US20100298377A1, “NOVEL SUBSTITUTED INDAZOLES, THE PREPARATION THEREOF AND USE OF SAME IN THERAPEUTICS” (SANOFI-AVENTIS, priority 2007, published 2010):

How the values were obtained:
[1] = tested on: C-433 cells (human Ewing sarcoma cells); experiment: Proliferation of C-433 cells, intracellular ATP, CellTiter-Glo test; format: cell-based; settings: Homo sapiens, 96 hours
Text: b. Study of the Proliferation of Human Tumoral MIA PaCa-2, C-433, LnCaP and MCF7 Cells via Assay of the Intracellular ATP Using the Celltiter-Glo™ Test
The kit CellTiter-Glo™ for measuring cell viability via luminescence ([…]) is a homogeneous method for determining the number of viable cells in culture, based on quantification of the ATP present in the cells, and which indicates the presence of metabolically active cells.
The cell lines used in this test were the following: MIA PaCa-2 cells (human pancreatic carcinoma cells, ATCC, CRL-1420), C-433 cells (human Ewing sarcoma cells, DSMZ, ACC 268), LNCaP clone FGC cells (human prostate carcinoma cells, ATCC, CRL-1740), MCF7 cells (human breast carcinoma cells, ECACC, #86012803). The cells MIAPaCa-2 and LNCaP were cultured in D-MEM culture medium (Invitrogen Gibco, #419656-039) containing 10% foetal calf serum (FCS, Invitrogen Gibco, #10500-064) and 2 mM L-Glutamine (Invitrogen Gibco, #25030-024); the C-433 cells were cultured in MCCoy's 5A culture medium (Invitrogen Gibco, #26600-023)/RPMI 1640 (Invitrogen Gibco, #31870-025) (50/50) containing 10% FCS and 2 mM L-glutamine; the MCF7 cells were cultured in EMEM culture medium (EMEM, Biowhittaker, Lonza, #BE12-662F) containing 10% FCS and 2 mM L-Glutamine.
Evaluation of the Cell Viability via Luminescence Measurement: Celltiter-Glo™ Test
On day 1, the cells were inoculated at 1000 (C-433), 2500 (MCF7) and 10000 (LNCaP and MIA PaCa-2) cells per well in black-bottomed 96-well microplates (NUNC fluoronunc, Fisherbioblock 2311K) in 135 μl of whole culture medium and incubated at 37° C., 5% CO2, for 3 to 6 hours. The cells were then incubated with increasing concentrations of molecules diluted in dimethyl sulfoxide (DMSO, Sigma D2650). The molecules were added in a volume of 15 μl of a 10-fold concentrated solution in a final volume of 150 μl, the final percentage of DMSO being 0.1%. The cells were incubated at 37° C., 5% CO2, for 96 hours. After 4 days of treatment with the molecules, the CellTiter-Glo™ was performed by following the manufacturer's instructions (Kit Celltiter-Glo Luminescent, PROMEGA #G7571). Briefly, the cell plates were equilibrated for about 30 minutes at RT and 100 μl per well of Celltiter-Glo reagent were added. The cells were incubated for 1 hour at RT for lysis of the cells and stabilization of the signal. The intracellular ATP was quantified by measuring the luminescence in rlu units (relative luminescence units), 96 hours after initiation of the treatment, using a luminescence counter (Wallac). The tests were performed in six replicates.
i) the mean±s.e.m. of each series of well replicates was calculated;
ii) the maximum response is given by positive control wells containing untreated cells; this control was performed in 12 replicates;
iii) the minimum response is given by cell-free and untreated negative control wells; this control was performed in 6 replicates;
iv) using these maximum (100%) and minimum (0%) response values, respectively, the data were normalized to give a percentage relative to the maximum response;
The IC50 values were calculated by […] with the XLfit software (IDBS, UK) using formula 205.

| SMILES | IC50 [1] | melting point |
| --- | --- | --- |
| O=C(Nc1ccc2[nH]ncc2c1)N[C@@H](c1cc(F)cc(Cl)c1)[C@@H]1CCCCN1 [Ex 3, 1-{(S)-(3-Chloro-5-fluorophenyl)[(2S)-piperid-2-yl]methyl}-3-(1H-indazol-5-yl)urea] | 630 nM |  |
| O=C(Nc1ccc2[nH]ncc2c1)N[C@@H](c1ccc(Cl)c(Cl)c1)[C@@H]1CCCCN1 [Ex 4, 1-{(S)-(3,4-Dichlorophenyl)[(2S)-piperid-2-yl]methyl}-3-(1H-indazol-5-yl)urea] | 680 nM | 216 °C |
| O=C(Nc1ccc2[nH]ncc2c1)NC(c1cc(F)cc(Cl)c1)C1CCCCN1 (stereo not shown) [Ex 5, 1-[(3-Chloro-5-fluorophenyl)(piperid-2-yl)methyl]-3-(1H-indazol-5-yl)urea] |  | 185 °C |
| CN1CCCCC1C(NC(=O)Nc1ccc2[nH]nc(C#Cc3cccnc3)c2c1)c1ccccc1 [Ex 25, 1-[(1-Methylpiperid-2-yl)(phenyl)methyl]-3-[3-(pyrid-3-ylethynyl)-1H-indazol-5-yl]urea((S,2S),(R,2R))] | 288 nM |  |
| O=C(Nc1ccc2[nH]ncc2c1)O[C@@H](c1ccc(Cl)c(Cl)c1)[C@@H]1CCCCN1 [Ex 38b, (S)-(3,4-Dichlorophenyl)[(2S)-piperid-2-yl]methyl 1H-indazol-5-ylcarbamate] | 1790 nM |  |
| O=C(Nc1ccc2[nH]ncc2c1)O[C@@H](c1cccc(Br)c1)[C@@H]1CCCCN1 [Ex 46] | 500 nM |  |
